Structures can show the parent of a compound that is named as a salt. Where two headings read alike, the source gives them in different places.
Biological target: T1, CAMKK1 kinase domain (CAMKK1-KD, Gln124-Lys411) (Homo sapiens, UniProt Q8N5S9)
T1 construct: The kinase domain (Gln124 to Lys411) was amplified using the primers; 6xHis (TEV-cleavable) (N, cleaved yes); made in house; host or cells: Escherichia coli BL21(DE3)-R3 co-expressing λ-phosphatase
Experiment: Differential scanning fluorimetry (DSF) screen of a kinase inhibitor library against CAMKK1-KD
Format: binding
Procedure: DSF measurements were made in a 384-well plate.
The compounds, previously solubilized in DMSO, were used at 10 µM final concentration and 0.1% DMSO. Plates were sealed using optically clear films and transferred to a QuantStudio 6 qPCR instrument (Applied Biosystems). […] Protein in 0.1% DMSO was used as a reference.

[1] = DSF, 1 μM CAMKK1-KD, compound 10 µM, supplement, read-out: Mean ΔTm (°C)
[2] = DSF, 1 μM CAMKK1-KD, compound 10 µM, supplement
[3] = DSF, 1 μM CAMKK1-KD, compound 10 µM, mean and standard error from triplicate measurements, read-out: ΔTm (°C) CAMKK1

T1 sequence (Q8N5S9 124-411): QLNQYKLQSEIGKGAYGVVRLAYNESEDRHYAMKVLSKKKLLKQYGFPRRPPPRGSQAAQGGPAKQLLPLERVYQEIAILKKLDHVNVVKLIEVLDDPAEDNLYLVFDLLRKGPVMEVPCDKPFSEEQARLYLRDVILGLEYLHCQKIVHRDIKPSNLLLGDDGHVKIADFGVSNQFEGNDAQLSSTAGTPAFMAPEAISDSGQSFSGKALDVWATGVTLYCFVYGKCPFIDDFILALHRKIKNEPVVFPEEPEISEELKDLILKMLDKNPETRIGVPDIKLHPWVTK

| Molecule | ΔTm at 10 µM [1] [°C] | Mean ΔTm (°C) [2] [°C] | other results |
| --- | --- | --- | --- |
| O=C(Nc1c[nH]nc1-c1nc2ccc(CN3CCOCC3)cc2[nH]1)NC1CC1 [AT9283] | 5.6 | – | – |
| O=C(c1cccc(Cl)c1F)N1CCN(Cc2cccc(Nc3nccs3)n2)CC1 [MK-8745] | – | 2.0 | – |
| O=C1Nc2ccc(I)cc2/C1=C/c1cc(Br)c(O)c(Br)c1 [GW5074] | – | 5.4 | – |
| CCN1CCN(Cc2ccc(Nc3ncc(F)c(-c4cc(F)c5nc(C)n(C(C)C)c5c4)n3)nc2)CC1 [LY2835219] | 6.7 | – | – |
| O=c1[nH]c2ccc(Cl)cc2c(N[C@@H]2CN3CCC2CC3)c1-c1nc2ccccc2[nH]1 [CHIR-124] | – | 5.5 | – |
| CCOc1cc2ncc(C#N)c(Nc3ccc(F)c(Cl)c3)c2cc1NC(=O)/C=C/CN(C)C [Pelitinib (EKB-569), Pelitinib] | 3.2 | – | – |
| COc1cc2nccc(Oc3ccc(NC(=O)C4(C(=O)Nc5ccc(F)cc5)CC4)cc3)c2cc1OC [Cabozantinib malate (XL184), Cabozantinib malate] | 5.2 | – | – |
| O=C1Nc2cc(Br)ccc2/C1=C1/Nc2ccccc2/C1=N\O [BIO] | – | 2.9 | – |
| Cc1cnc(Nc2ccc(N3CCN(C)CC3)cc2)nc1Nc1cccc(S(=O)(=O)NC(C)(C)C)c1 [TG101209] | – | 3.6 | – |
| CN[C@@H]1C[C@H]2O[C@@](C)([C@@H]1OC)n1c3ccccc3c3c4c(c5c6ccccc6n2c5c31)C(=O)NC4 [Staurosporine] | – | – | ΔTm at 10 µM (read-out: ΔTm (°C) CAMKK1): 23.7 ± 1.9 °C |
| C=CC(=O)Nc1cccc(Nc2nc(Nc3ccc(N4CCN(C(C)=O)CC4)cc3OC)ncc2C(F)(F)F)c1 [CO-1686 (AVL-301)] | 3.4 | – | – |
| Cc1[nH]nc2ccc(-c3cncc(OC[C@@H](N)Cc4ccccc4)c3)cc12 [A-674563] | – | 5.7 | – |
| CN(C)C/C=C/C(=O)Nc1cc2c(Nc3ccc(F)c(Cl)c3)ncnc2cc1O[C@H]1CCOC1 [Afatinib (BIBW2992), Afatinib] | 3.4 | – | – |
| CN1CCC(CNc2ccc3ncc(-c4cccc(OC(F)(F)F)c4)n3n2)CC1 [SGI-1776 free base] | – | 3.4 | – |
| CC(C)CCN1c2nc(Nc3cc(F)c(O)c(F)c3)ncc2N(C)C(=O)C1C (centres unmarked) [BI-D1870] | – | 3.6 | – |
| O=C(Nc1cccc(Nc2ncc(Br)c(NCCc3cnc[nH]3)n2)c1)N1CCCC1 [BX-912] | – | 4.3 | – |
| C1=C/COCc2cc(ccc2OCCN2CCCC2)Nc2nccc(n2)-c2cccc(c2)COC/1 [Pacritinib (SB1518), Pacritinib] | – | – | ΔTm at 10 µM [3]: 5.7 ± 1.2 °C |
| Cc1cc(Nc2cc(CN3CCOCC3)c3nc(C)c(Cc4ccc(Cl)cc4F)n3n2)n[nH]1 [LY2784544] | 4.6 | – | – |
| Cc1[nH]c(/C=C2\C(=O)Nc3ccccc32)c(C)c1CCC(=O)O [TSU-68 (SU6668)] | 4.9 | – | – |
| COc1cc2nccc(Oc3ccc(NC(=O)Nc4cc(C)on4)c(Cl)c3)c2cc1OC [Tivozanib (AV-951), Tivozanib] | – | – | ΔTm at 10 µM [3]: 2.6 ± 3.1 °C |
| CCOc1ccn(-c2ccc(F)cc2)c(=O)c1C(=O)Nc1ccc(Oc2ccnc(N)c2Cl)c(F)c1 [BMS-777607] | – | – | ΔTm at 10 µM (read-out: ΔTm (°C) CAMKK1): 7.5 ± 0.3 °C |
| COc1cc2c(Nc3ccc(NC(=O)c4ccccc4)cc3)ncnc2cc1OCCCN1CCOCC1 [ZM 447439] | – | 2.0 | – |
| COc1cc2nccc(Oc3ccc(NC(=O)Nc4ccc(F)cc4F)c(F)c3)c2cc1OC [Ki8751] | – | 2.1 | – |

| Molecule | ΔTm at 10 µM [1] [°C] | Mean ΔTm (°C) [2] [°C] | other results |
| --- | --- | --- | --- |
| Cc1nc(Nc2[nH]nc3c2CN(C(=O)N[C@H](CN(C)C)c2ccccc2)C3(C)C)c2sccc2n1 [PF-3758309] | 4.6 | – | – |
| CC[C@@H]1C(=O)N(C)c2cnc(Nc3ccc(C(=O)N[C@H]4CC[C@H](N5CCN(CC6CC6)CC5)CC4)cc3OC)nc2N1C(C)C [Volasertib (BI 6727), Volasertib] | – | – | ΔTm at 10 µM [3]: 7.7 ± 0.8 °C |
| Cc1cc(Nc2nc(N[C@@H](C)c3ccc(F)cc3)c(C#N)cc2F)[nH]n1 [AZ 960] | 4.4 | – | – |
| COc1cc2nccc(Oc3ccc(NC(=O)C4(C(=O)Nc5ccc(F)cc5)CC4)cc3)c2cc1OC [Cabozantinib (XL184), Cabozantinib] | – | 5.0 | – |
| CN(c1ncccc1CNc1nc(Nc2ccc3c(c2)CC(=O)N3)ncc1C(F)(F)F)S(C)(=O)=O [PF-562271] | – | 5.6 | – |
| CS(=O)(=O)c1cccc(CNc2nc(Nc3ccc4c(c3)CCC(=O)N4)ncc2C(F)(F)F)c1 [PF-573228] | – | 5.8 | – |
| NC(=O)c1cnc(N[C@@H]2CCCC[C@@H]2N)nc1Nc1cccc(-n2nccn2)c1 [PRT062607 (P505-15)] | – | 4.1 | – |
| CS(=O)(=O)O.Cn1cc(C2=C(c3cn(CCCSC(=N)N)c4ccccc34)C(=O)NC2=O)c2ccccc21 [Ro 31-8220 Mesylate] | – | 3.4 | – |
| CNC(=O)c1ccccc1Nc1nc(Nc2ccc(N3CCOCC3)cc2OC)ncc1Cl [TAE226 (NVP-TAE226)] | – | 3.0 | – |
| CNC(=O)c1nn(C)c2c1C(C)(C)Cc1cnc(Nc3ccc(N4CCN(C)CC4)cc3)nc1-2 [Milciclib (PHA-848125), Milciclib] | 4.1 | – | – |
| CO[C@@H](C(=O)N1Cc2n[nH]c(NC(=O)c3ccc(N4CCN(C)CC4)cc3)c2C1)c1ccccc1 [Danusertib (PHA-739358), Danusertib] | 3.8 | – | – |
| COc1cc(N2CCC(N)CC2)ccc1Nc1ncc(Cl)c(-c2c[nH]c3ccccc23)n1 [AZD3463] | – | – | ΔTm (°C) CAMKK1 (DSF, 1 μM CAMKK1-KD, compound 10 µM, mean and standard error from triplicate measurements): 11.5 ± 0.3 °C |
| O=C1NC(=O)/C(=C/c2ccc(-c3ccc(F)cc3O)o2)S1 [AS-252424] | – | 4.8 | – |
| COc1cc2c(N3CCN(C(=O)Nc4ccc(OC(C)C)cc4)CC3)ncnc2cc1OCCCN1CCCCC1 [Tandutinib (MLN518), Tandutinib] | 2.3 | – | – |
| O=C(NCc1ccccc1)c1csc(Nc2ccncn2)n1 [Thiazovivin] | – | 3.0 | – |
| CN(c1ncccc1CNc1nc(Nc2ccc3c(c2)CC(=O)N3)ncc1C(F)(F)F)S(C)(=O)=O [PF-00562271] | – | 5.2 | – |
| COc1cc(C(=O)NC2CCN(C)CC2)ccc1Nc1ncc2c(n1)N(C1CCCC1)CC(F)(F)C(=O)N2C [Ro3280] | – | 4.8 | – |
| Cc1cnc(Nc2ccc(OCCN3CCCC3)cc2)nc1Nc1cccc(S(=O)(=O)NC(C)(C)C)c1 [TG101348 (SAR302503)] | 3.4 | – | – |
| CN1CCN(c2ccc3nc(-c4c(N)c5c(F)cccc5[nH]c4=O)[nH]c3c2)CC1 [Dovitinib (TKI-258), Dovitinib] | – | 3.1 | – |
| O=c1c(O)c(-c2ccc(O)c(O)c2)oc2cc(O)cc(O)c12 [Quercetin] | 4.9 | – | – |
| Cc1ccc(C(=O)Nc2ccc(CN3CCN(C)CC3)c(C(F)(F)F)c2)cc1C#Cc1cnc2cccnn12 [Ponatinib (AP24534), Ponatinib] | – | – | ΔTm at 10 µM (read-out: ΔTm (°C) CAMKK1): 4.4 ± 3.1 °C |
| CC(=O)c1c(C)c2cnc(Nc3ccc(N4CCNCC4)cn3)nc2n(C2CCCC2)c1=O [Palbociclib (PD-0332991) HCl, Palbociclib] | – | – | ΔTm at 10 µM (read-out: Mean ΔTm (°C)): 4.4 °C |
| AZD4547 | – | 5.9 | – |

Now from value to molecule, other results behind:

| ΔTm at 10 µM [1] [°C] | Mean ΔTm (°C) [2] [°C] | Molecule | other results |
| --- | --- | --- | --- |
| 3.6 | – | Nc1nc(Nc2ccc(S(N)(=O)=O)cc2)nn1C(=O)c1c(F)cccc1F [JNJ-7706621] | – |
| 5.2 | – | Cc1[nH]c(/C=C2\C(=O)Nc3ccc(S(=O)(=O)Cc4c(Cl)cccc4Cl)cc32)c(C)c1C(=O)N1CCC[C@@H]1CN1CCCC1 [PHA-665752] | – |
| – | 4.2 | COc1ccccc1-c1cc(Nc2cccc(CS(N)(=O)=O)c2)ncn1 [LDC000067] | – |
| 2.6 | – | Cc1cc(Nc2cc(N3CCN(C)CC3)nc(/C=C/c3ccccc3)n2)n[nH]1 [ENMD-2076] | – |
| – | 3.0 | O=C1NCCc2[nH]c(-c3ccncc3)cc21 [PHA-767491] | – |
| – | 5.6 | O=C(NCc1cccc(O)c1)Nc1nc(-c2ccncc2)cs1 [RKI-1447] | – |
| 3.8 | – | Cc1cc(Nc2nc(N[C@@H](C)c3ncc(F)cn3)ncc2Cl)n[nH]1 [AZD1480] | – |
| – | 5.2 | COc1ccc2c(Oc3ccc(NC(=O)c4c(C)n(CC(C)(C)O)n(-c5ccccc5)c4=O)nc3)ccnc2c1 [AMG-458] | – |
| 4.1 | – | COc1ccc(Cl)c(Nc2nc3ccccc3nc2NS(=O)(=O)c2cccc(NC(=O)C(C)(C)N)c2)c1 [XL147] | – |
| 2.6 | – | C=CC(=O)Nc1cc(Nc2nccc(-c3cn(C)c4ccccc34)n2)c(OC)cc1N(C)CCN(C)C [AZD9291] | – |
| 5 | – | CCS(=O)(=O)c1cccc(-c2cc(C(=O)NC3CCN(C)CC3)c(C)c3[nH]c4ncc(C)cc4c23)c1 [TAK-901] | – |
| – | 3.6 | Cc1cc(N2CCOCC2)cc2[nH]c(-c3c(NC[C@@H](O)c4cccc(Cl)c4)cc[nH]c3=O)nc12 [BMS-536924] | – |
| 4.9 | – | Nc1nccc(Oc2ccc(NC(=O)c3c[nH]cc(-c4ccc(F)cc4)c3=O)cc2F)c1Cl [BMS-794833] | – |
| – | 3.1 | C=CC(=O)Nc1cccc(Oc2nc(Nc3ccc(N4CCN(C)CC4)cc3)ncc2Cl)c1 [WZ3146] | – |
| 3.6 | – | NC(=O)Nc1cc(-c2cccc(F)c2)sc1C(=O)N[C@H]1CCCNC1 [AZD7762] | – |
| – | 4.4 | C=CC(=O)Nc1cccc(Nc2nc(Nc3ccc(NC4CN(CCF)C4)cc3OC)ncc2C(F)(F)F)c1 [CNX-2006] | – |
| 3.4 | – | Cc1ncc(-c2ccnc(Nc3ccc(S(C)(=O)=O)cc3)n2)n1C(C)C [AZD5438] | – |
| 3 | – | CC(C)CC(=O)Nc1[nH]nc2c1CN(C(=O)C1CCN(C)CC1)C2(C)C [PHA-793887] | – |
| – | 4.1 | C=CC(=O)Nc1cccc(Sc2nc(Nc3ccc(N4CCN(C)CC4)cc3)ncc2Cl)c1 [WZ8040] | – |
| 4.7 | – | N#CCNC(=O)c1ccc(-c2ccnc(Nc3ccc(N4CCOCC4)cc3)n2)cc1 [CYT387] | – |
| 3.9 | – | Cc1cc(Nc2ncc(Cl)c(Nc3ccccc3S(=O)(=O)C(C)C)n2)c(OC(C)C)cc1C1CCNCC1 [LDK378] | – |
| 2.7 | – | Cc1nc(N)sc1-c1ccnc(Nc2ccc(N3CCOCC3)cc2)n1 [CYC116] | – |

Source: PMC6172212, “Structural Analysis of Inhibitor Binding to CAMKK1 Identifies Features Necessary for Design of Specific Inhibitors” (Scientific Reports, 2018)
